Experiments:
[1] = tested on: rat brain lysate proteins; assay: Affinity isolation (pull-down) from rat brain lysate, silver stain and proteomics; type: binding; conditions: for proteins pulled down (silver stain, words): biotinylated peptide, rat brain lysate, streptavidin beads; for enrichment of co-precipitated proteins by mass spectroscopy: in comparison to control conditions (absence of peptide)
Method: Brains were obtained from adult (2–3 months old) Sprague-Dawley rats raised in the animal facility of Bordeaux University B 33 063 917. Animals were killed by decapitation after isoflurane anaesthesia (5%, 3 min), in accordance with the European 2010/63/EU directive and approved by the Bordeaux University Ethics Committee (CE50). Frozen brains (2 × ~1.5 g) were thawed in 20 mL ice cold modified RIPA buffer (50 mM Tris pH 7.5, 150 mM NaCl, 0.1% SDS, 0.5% sodium deoxycholate, 1% NP-40, 1 mM EDTA) containing a protease inhibitor mixture (1:1000; Protease Inhibitor Cocktail set III; Calbiochem) for about 5 min and cut into small pieces. The tissues were homogenised using a glass/teflon homogeniser. Homogenates were centrifuged at 7500 × g for 25 min at 4 °C to remove cell debris. The supernatant was aliquoted and stored at −80 °C until the affinity-based isolation (pull-down) experiments were performed. Streptavidin-coated beads (Dynabeads M-280, Life Technologies) were washed three times and incubated for 15 min at room temperature (RT) in modified RIPA buffer supplemented with 0.1% BSA. Rat brain lysates were incubated with the biotinylated peptide (or biotin as a negative control) for 10 min at RT before addition of the beads and further incubation for 5 min at RT. Beads were washed five times in RIPA buffer and transferred into new eppendorf tubes. For elution, acetylated ligands were added in excess to the bead suspension and incubated for 5 min at RT. The supernatant was kept for proteomics analysis and electrophoresis followed by silver staining after addition of fresh 6× sample buffer (ProteoSilver Silver Stain Kit, Sigma-Aldrich).
Samples were solubilized in Laemlli buffer and were deposited in triplicate onto SDS-PAGE. Separation was stopped once proteins have entered resolving gel. After colloidal blue staining, bands were cut out from the SDS-PAGE gel and subsequently cut in 1 mm × 1 mm gel pieces. Gel pieces were destained in 25 mM ammonium bicarbonate 50% MeCN, rinsed twice in ultrapure water and shrunk in MeCN for 10 min. After MeCN removal, gel pieces were dried at room temperature, covered with the trypsin solution (10 ng/µl in 50 mM NH4HCO3), rehydrated at 4 °C for 10 min, and finally incubated overnight at 37 °C. Spots were then incubated for 15 min in 50 mM NH4HCO3 at room temperature with rotary shaking. The supernatant was collected, and an H2O/MeCN/HCOOH (47.5:47.5:5) extraction solution was added onto gel slices for 15 min. The extraction step was repeated twice. Supernatants were pooled and dried in a vacuum centrifuge to a final volume of 25 µL. Digests were finally resuspended in 25 µl of formic acid (5%, v/v) and stored at −20 °C.
Peptide mixture was analysed on a Ultimate 3000 nanoLC system (Dionex, Amsterdam, The Netherlands) coupled to a nanospray LTQ-Orbitrap XL mass spectrometer (ThermoFinnigan, San Jose, CA). Ten microliters of peptide digests were loaded onto a 300-µm-inner diameter × 5-mm C18 PepMap^TM trap column (LC Packings) at a flow rate of 30 µL/min. The peptides were eluted from the trap column onto an analytical […] × 15-cm C18 Pep-Map column (LC Packings) with a 4–40% linear gradient of solvent B in 35 min (solvent A was 0.1% formic acid in 5% MeCN, and solvent B was 0.1% formic acid in 80% MeCN). The separation flow rate was set at 300 nL/min. The mass spectrometer operated in positive ion mode at a 2-kV needle voltage. Data were acquired in a data-dependent mode. Mass spectrometry (MS) scans (m/z 300–1700) were recorded at a resolution of R = 70,000 (@ m/z 400) and an AGC target of 5 × 10^5 ions collected within 500 ms. Dynamic exclusion was et to 30 s and top 6 ions were selected from fragmentation in CID mode. MS/MS scans with a target value of 1 × 10^4 ions were collected in the ion trap with a maximum fill time of 200 ms. Additionally, only +2 and +3 charged ions were selected for fragmentation. […]

[2] = molecular target: SH3 domain of amphiphysin (amphSH3); conditions: read-out: affinity for amphSH3; cited from earlier work
From the text: The large GTPase dynamin is essential for vesicle scission[6] and is primarily recruited at the last steps of vesicle formation[4],[7],[8]. Many aspects of the function of this indispensable protein have been deciphered[9] but how its recruitment is regulated in cells is still a matter of debate. In this regard, the C-terminal proline/arginine rich domain of dynamin (dynPRD) is critical. It is a major interaction hub for Src-homology domain 3 (SH3) domain-containing endocytic accessory proteins[10] that bears several class I (RxxPxxP) and class II (PxxPxR) SH3-binding motifs (where P is prolin ...

GST-amphSH3 (dimeric) = molecular target: T1, GST-amphSH3 (dimeric) (Mus musculus, UniProt Q7TQF7); assay: SPR, dimeric GST-amphSH3 on immobilized peptides; type: binding, murine; conditions: below 1 µM
T1 construct: murine Ampiphysin1 SH3 domain residues 607–686); made in house; host or cells: E. coli BL21-CodonPlus (DE3)-RIPL
T1 sequence (Q7TQF7 607-686): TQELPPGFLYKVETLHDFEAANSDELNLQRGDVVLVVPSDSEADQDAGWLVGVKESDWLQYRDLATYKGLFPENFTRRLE

[3] = molecular target: T2, Ntr-bSUMO-amphSH3 complex (tetrameric, neutravidin) (Mus musculus, UniProt Q7TQF7); assay: SPR, tetrameric Ntr-bSUMO-amphSH3 on immobilized peptides; type: binding, murine; conditions: in the tested concentration range
T2 construct: murine Ampiphysin1 SH3 domain residues 607–686); made in house; host or cells: E. coli BL21 (DE3) co-expressing BirA, with biotin
T2 sequence (P02701 25-152 partner, one chain of several): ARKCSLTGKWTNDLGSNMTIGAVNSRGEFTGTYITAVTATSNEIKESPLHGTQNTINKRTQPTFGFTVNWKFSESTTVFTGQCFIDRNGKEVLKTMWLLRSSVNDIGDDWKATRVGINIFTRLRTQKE

[4] = pull-down from rat brain lysate, LC-MS/MS, vs no peptide control

For `CC(=O)N[C@@H](Cc1ccc(O)cc1)C(=O)N[C@@H](CCCCn1cc(CCC(=O)NCCCOCCOCCOCCCNC(=O)CCC(=O)NCCCOCCOCCOCCCNC(=O)CCC(=O)NCCCOCCOCCOCCCNC(=O)CCC(=O)N2CCC[C@H]2C(=O)N2CCC[C@H]2C(=O)N2CCC[C@H]2C(=O)N[C@@H](CCC(N)=O)C(=O)N[C@H](C(=O)N2CCC[C@H]2C(=O)N[C@@H](CO)C(=O)N[C@@H](CCCNC(=N)N)C(=O)N2CCC[C@H]2C(=O)N[C@@H](CC(N)=O)C(=O)N[C@@H](CCCNC(=N)N)C(=O)N[C@@H](C)C(=O)N2CCC[C@H]2C(=O)N2CCC[C@H]2C(=O)NCC(N)=O)C(C)C)nn1)C(=O)NCCCOCCOCCOCCCNC(=O)CCC(=O)NCCCOCCOCCOCCCNC(=O)CCC(=O)NCCCOCCOCCOCCCNC(=O)CCC(=O)N1CCC[C@H]1C(=O)N1CCC[C@H]1C(=O)N1CCC[C@H]1C(=O)N[C@@H](CCC(N)=O)C(=O)N[C@H](C(=O)N1CCC[C@H]1C(=O)N[C@@H](CO)C(=O)N[C@@H](CCCNC(=N)N)C(=O)N1CCC[C@H]1C(=O)N[C@@H](CC(N)=O)C(=O)N[C@@H](CCCNC(=N)N)C(=O)N[C@@H](C)C(=O)N1CCC[C@H]1C(=O)N1CCC[C@H]1C(=O)NCC(N)=O)C(C)C` [dD15-N], the “proteins pulled down (silver stain, words)” value [1] was “isolated a number of proteins”, the “enrichment of co-precipitated proteins by mass spectroscopy” value [1] was “highly enriched in CME related proteins” and the “Max fold change, AP2a1” value [1, 4] was 28.6. The “Max fold change, AP2a2” value [1, 4] was 13.8, the “Max fold change, AP2b1” value [1, 4] was 40.0 and the “Max fold change, AP2m1” value [1, 4] was 25.5. For the same molecule, the “Max fold change, Actg1” value [1, 4] was 2.2, the “Max fold change, Actg2” value [1, 4] was 2.3 and the “Max fold change, Amphiphysin1” value [1, 4] was 40.7. The “Max fold change, Amy1a” value [1, 4] was 2.8, the “Max fold change, Appbp2” value [1, 4] was 20.8 and the “Max fold change, Atp1a3” value [1, 4] was 33.4. The “Max fold change, BIN1 (Amph2)” value [1, 4] was 70.2, the “Max fold change, CD2-ap” value [1, 4] was 124.5 and the “Max fold change, CHC” value [1, 4] was 22.7. The “Max fold change, Calcoco1” value [1, 4] was 11.9, the “Max fold change, Capza1” value [1, 4] was 23.0 and the “Max fold change, Dnm1” value [1, 4] was 27.4. For the same molecule, the “Max fold change, Endophilin-A1” value [1, 4] was 53.5, the “Max fold change, Endophilin-A2” value [1, 4] was 1.7 and the “Max fold change, Eps15l1” value [1, 4] was 196.9. For the same molecule, the “Max fold change, Hspa5” value [1, 4] was 4.1, the “Max fold change, Hspa8” value [1, 4] was 15.6 and the “Max fold change, Hspa9” value [1, 4] was 42.1. For the same molecule, the “Max fold change, Intersectin-1” value [1, 4] was 60.7, the “Max fold change, Intersectin-2” value [1, 4] was 118.9 and the “Max fold change, Rundc3a” value [1, 4] was 16.0. For the same molecule, the “Max fold change, SH3d19” value [1, 4] was 42.9, the “Max fold change, SH3kbp1/CIN85” value [1, 4] was 207.5 and the “Max fold change, SNX18” value [1, 4] was 16.1. The “Max fold change, Tuba1a” value [1, 4] was 13.3, the “Max fold change, Tuba4a” value [1, 4] was 14.5 and the “Max fold change, Tubb2a” value [1, 4] was 75.4. The “Max fold change, Tubb3” value [1, 4] was 1.2, the “Max fold change, Tubb4a” value [1, 4] was 43.4 and the “Max fold change, Tubb5” value [1, 4] was 18.0. For the same molecule, the “Max fold change, Ubc” value [1, 4] was 1.2.
For “Ac-YPPPQVPSRPNRAPPG-NH2 [D15, reference compound]”, the Kd [2] is listed as 90 µM, the “binding of GST-amphSH3” value (GST-amphSH3 (dimeric)) is listed as “no measureable binding” and the “binding of Ntr-bSUMO-amphSH3” value [3] is listed as “no binding was observed”. For the same molecule, the “proteins pulled down (silver stain, words)” value [1] was “unable to pull down any detectable amount of protein”, the “enrichment of co-precipitated proteins by mass spectroscopy” value [1] was “failed to show any significant enrichment” and the “Max fold change, BIN1 (Amph2)” value [1, 4] was 0.163. For the same molecule, the “Max fold change, CD2-ap” value [1, 4] was 0.01, the “Max fold change, Endophilin-A1” value [1, 4] was 0.001 and the “Max fold change, Intersectin-2” value [1, 4] was 0.944. The “Max fold change, SH3d19” value [1, 4] was 0.232, the “Max fold change, SH3kbp1/CIN85” value [1, 4] was 0.205 and the “Max fold change, any SH3 domain-containing protein” value [1, 4] was less than 1.

— article PMC6773865, “Functional recruitment of dynamin requires multimeric interactions for efficient endocytosis” (Nature Communications, 2019)
